# Like-named read-outs stand apart in the source and are kept apart here.
# Assays:
# [1] = tested on: patients with FGFR-aberrant cholangiocarcinoma
# [2] = LUC2001 (NCT02699606): pharmacokinetics and PK/PD (serum phosphate); assay type: in vivo, human
# Experimental: Pharmacodynamic and safety: Serum phosphate concentration was continuously monitored as a pharmacodynamic endpoint during the study to facilitate dose adjustment per protocol specification. Serum phosphate was measured on cycle 1 day 14 for pharmacodynamic uptitration. On study, serum phosphate concentration was set to be below 7 mg/dL in order to avoid prolonged hyperphosphatemia.
# Post hoc visual predictive check was performed on an existing population PK model, built with data from 373 patients with various tumor types (majority were caucasians).
# Post hoc visual predictive check was performed on serum phosphate concentration data based on an existing population PK/PD model.
# [3] = tested on: advanced cholangiocarcinoma subjects with FGFR alterations
# Experimental: Tumor assessments: Conducted every 8 (±1) weeks up to 1 year from start of study drug, then every 12 (±1) weeks thereafter until the patient dies, or withdrawal of consent or conclusion of the study, whichever occurs first.
# ORR (complete response [CR] or partial response [PR]) and disease control rate (DCR) was calculated with 95% CI.
# PFS was represented with descriptive summary statistics; Kaplan-Meier method was used for evaluation.
# [4] = median follow-up 5.5 mo, 11 patients
# [5] = of the 3 partial responses among 11 patients
# [6] = conclusion of snapshot 20 Mar. 2018
# [7] = as of 20 Aug. 2018, FGFR2 fusion
# [8] = as of 20 Aug. 2018, patients with FGFR2 alteration (n=9)
# [9] = snapshot as of 20 Mar. 2018, 11 response evaluable, 8 mg qd
# [10] = as of 20 Aug. 2018, 11 patients
# [11] = snapshot as of 20 Mar. 2018, 8 mg qd
# [12] = snapshot as of 20 Mar. 2018, 11 subjects, 8 mg qd
smiles,measurement,setting,value
"COc1cc(OC)cc(N(CCNC(C)C)c2ccc3ncc(-c4cnn(C)c4)nc3c2)c1 [erdafitinib, N-(3,5-dimethoxy-phenyl)-N′-(1-methylethyl)-N-[3-(1-methyl-1H-pyrazol-4-yl)quinoxalin-6-yl]ethane-1,2-diamine]",objective response rate,"[1]; 9 mg QD or 10 mg intermittent, all responses at 10 mg intermittent",27.3%
same,partial responses (number of patients),"[1]; 11 patients with FGFR-aberrant cholangiocarcinoma, 9 mg QD (n=1) or 10 mg intermittent (n=10)",3
same,"Overall disease control rate, including stable disease","[1]; 11 patients, 9 mg QD or 10 mg intermittent, 6/11",54.5%
same,6-mo progression-free survival rate,[1]; [4],36%
same,9-mo progression-free survival rate,[1]; [4],24%
same,Median progression-free survival,"[1]; median follow-up 5.5 mo, 95% CI 1.6 to 11.8 mo",5.1 mo
same,partial responses in patients with fusion FGFR2-BICC1,[1]; [5],1
same,partial responses in patients with fusion FGFR2-CCAR1,[1]; [5],1
same,results of PK and PK/PD relationship in Asian patients with advanced CCA,"[2]; as of 20 Aug. 2018, post hoc visual predictive check on population PK and PK/PD models",consistent with that known from patients with other types of solid tumor and different ethnic background
same,PK characteristics,[2]; [6],consistent with data from other erdafitinib studies
same,ORR - Objective Response Rate (CR+PR),"[3]; as of 20 Aug. 2018, 11 response evaluable, 8 mg once daily, n=5, 95% CI 16.7;76.6",45.5%
same,ORR (CR+PR+uCR+uPR),"[3]; as of 20 Aug. 2018, 11 response evaluable, 8 mg once daily, n=6, 95% CI 23.4;83.3",54.5%
same,Disease Control Rate-DCR (CR+PR+SD),"[3]; as of 20 Aug. 2018, 11 response evaluable, 8 mg once daily, n=8, 95% CI 39.0;94.0",72.7%
same,DCR (CR+PR+uCR+uPR+SD),"[3]; as of 20 Aug. 2018, 11 response evaluable, 8 mg once daily, n=9, 95% CI 48.2;97.7",81.8%
same,9-months PFS rate,"[3]; as of 20 Aug. 2018, 95% CI 11, 68",40%
same,"stable disease (SD), number of patients",[3]; [7],3
same,"unconfirmed PR, number of patients",[3]; [7],1
same,"confirmed PR, number of patients","[3]; as of 20 Aug. 2018, all FGFR2 alteration (1 mutation and 4 fusions)",5
same,"progressive disease (PD), number of patients","[3]; as of 20 Aug. 2018, both with FGFR3 mutations and concurrent KRAS mutations",2
same,9-months PFS rate,[3]; [8],49%
same,DCR,[3]; [8],100%
same,ORR (CR+PR+uCR+uPR),[3]; [8],66.7%
same,maximum tumor shrinkage,[3]; one PR patient with a FGFR2-KIAA1598 fusion,−46.2%
same,DCR (CR+PR+uCR+uPR+SD),[3]; [9],81.8%
same,ORR (CR+PR+uCR+uPR),[3]; [9],45.5%
same,"PD, number of subjects",[3]; [9],2
same,"partial response (PR), number of subjects",[3]; [9],3
same,"stable disease (SD), number of subjects",[3]; [9],4
same,"unconfirmed PR (uPR), number of subjects",[3]; [9],2
same,"Drug-related TEAE Alanine aminotransferase increased, Any grade","Erdafitinib 8 mg (QD), N = 11",2 N
same,"Drug-related TEAE Aspartate aminotransferase increased, Any grade","Erdafitinib 8 mg (QD), N = 11",2 N
same,"Drug-related TEAE Constipation, Any grade","Erdafitinib 8 mg (QD), N = 11",3 N
same,"Drug-related TEAE Decreased appetite, Any grade","Erdafitinib 8 mg (QD), N = 11",3 N
same,"Drug-related TEAE Diarrhoea, Any grade","Erdafitinib 8 mg (QD), N = 11",3 N
same,"Drug-related TEAE Dry eye, Any grade","Erdafitinib 8 mg (QD), N = 11",2 N
same,"Drug-related TEAE Dry mouth, Any grade","Erdafitinib 8 mg (QD), N = 11",8 N
same,"Drug-related TEAE Dry mouth, ≥Grade 3","Erdafitinib 8 mg (QD), N = 11",1 N
same,"Drug-related TEAE Dry skin, Any grade","Erdafitinib 8 mg (QD), N = 11",5 N
same,"Drug-related TEAE Dry skin, ≥Grade 3","Erdafitinib 8 mg (QD), N = 11",1 N
same,"Drug-related TEAE Hyperphosphataemia, Any grade","Erdafitinib 8 mg (QD), N = 11",10 N
same,"Drug-related TEAE Hyponatremia, Any grade","Erdafitinib 8 mg (QD), N = 11",1 N
same,"Drug-related TEAE Hyponatremia, ≥Grade 3","Erdafitinib 8 mg (QD), N = 11",1 N
same,"Drug-related TEAE Nail disorder, Any grade","Erdafitinib 8 mg (QD), N = 11",4 N
same,"Drug-related TEAE Nail disorder, ≥Grade 3","Erdafitinib 8 mg (QD), N = 11",1 N
same,"Drug-related TEAE Nausea, Any grade","Erdafitinib 8 mg (QD), N = 11",2 N
same,"Drug-related TEAE Onycholysis, Any grade","Erdafitinib 8 mg (QD), N = 11",1 N
same,"Drug-related TEAE Onycholysis, ≥Grade 3","Erdafitinib 8 mg (QD), N = 11",1 N
same,"Drug-related TEAE Onychomycosis, Any grade","Erdafitinib 8 mg (QD), N = 11",2 N
same,"Drug-related TEAE Palmar-plantar erythrodysaesthesia syndrome, Any grade","Erdafitinib 8 mg (QD), N = 11",4 N
same,"Drug-related TEAE Paronychia, Any grade","Erdafitinib 8 mg (QD), N = 11",3 N
same,"Drug-related TEAE Paronychia, ≥Grade 3","Erdafitinib 8 mg (QD), N = 11",1 N
same,"Drug-related TEAE Punctate keratitis, Any grade","Erdafitinib 8 mg (QD), N = 11",2 N
same,"Drug-related TEAE Stomatitis, Any grade","Erdafitinib 8 mg (QD), N = 11",8 N
same,"Drug-related TEAE Stomatitis, ≥Grade 3","Erdafitinib 8 mg (QD), N = 11",2 N
same,"Patients with drug-related TEAEs, Any grade","Erdafitinib 8 mg (QD), N = 11",11 N
same,"Patients with drug-related TEAEs, ≥Grade 3","Erdafitinib 8 mg (QD), N = 11",6 N
same,patients reporting Grade 3 or higher TEAEs,"as of 20 Aug. 2018, 8 mg once daily",6/11
same,AE leading to treatment discontinuation or death,[10],no AE
same,most common TEAEs,[10],"hyperphosphatemia, dry mouth, stomatitis, dry skin, nail disorder, and palmar-plantar erythrodysaesthesia syndrome"
same,patients who experienced drug-related TEAEs,"as of 20 Aug. 2018, 11 patients, 8 mg once daily",All patients
same,Serious TEAEs (not drug-related),"as of 20 Aug. 2018, of 11 (27.3%), upper gastrointestinal haemorrhage, pyelonephritis acute, pathological fracture, n=1 each",3 patients
same,Drug-related TEAEs leading to dose reduction,"as of 20 Aug. 2018, of 11 patients (45.5%)",5 patients
same,Grade 3 or higher drug-related TEAEs,"as of 20 Aug. 2018, of 11 patients (54.5%)",Six
same,drug-related TEAEs leading to dose interruption,"as of 20 Aug. 2018, of 11 patients (100%)",11 patients
same,safety profile in patients with FGFR-aberrant advanced cholangiocarcinoma,[6],tolerable safety profile
same,AE diarrhea (subjects),[11],4/11
same,AE dry mouth (subjects),[11],7/11
same,AE hyperphosphatemia (subjects),[11],8/11
same,AE nail disorder (subjects),[11],4/11
same,AE palmar-plantar erythrodysaesthesia syndrome (subjects),[11],4/11
same,AE stomatitis (subjects),[11],7/11
same,AE leading to treatment discontinuation or death,[12],no AE
same,drug related SAE,[12],no drug related SAE
same,subjects who experienced AEs,[12],All subjects
same,subjects who experienced Grade 3 or worse AEs,[12],7
same,subjects who experienced serious AEs (SAEs),[12],3
same,subjects with AEs leading to dose reduction,[12],3
same,subjects with AEs leading to drug interruption,[12],all
